# Source: ChEMBL document CHEMBL3425509, “Design, synthesis, and biological evaluation of benzofuran- and 2,3-dihydrobenzofuran-2-carboxylic acid N-(substituted)phenylamide derivatives as anticancer agents and inhibitors of NF-κB” (Bioorg Med Chem Lett, 2015)
# pIC50: −log10 of the molar value.
# Columns and labels:
# [1] = Cytotoxicity against human PC3 cells assessed as cell viability at 10 uM after 72 hrs by sulforhodamine B assay relative to control; type: functional; conditions: PC-3, 72 h, read-out: Activity
# ACHN [2] = assay: Cytotoxicity against human ACHN cells assessed as cell viability at 10 uM after 72 hrs by sulforhodamine B assay relative to control; type: functional; conditions: read-out: Activity
# MDA-MB-231 [3] = assay: Cytotoxicity against human MDA-MB-231 cells assessed as cell viability at 10 uM after 72 hrs by sulforhodamine B assay relative to control; type: functional; conditions: MDA-MB-231, 72 h, read-out: Activity
# [4] = target: Nuclear factor NF-kappa-B complex (Homo sapiens, UniProt P19838+Q00653+Q04206); assay: Inhibition of NF-kappaB (unknown origin) transcriptional activity in LPS-induced mouse RAW264.7 cells after 1 hr by secreted alkaline phosphatase assay; type: cell-based
# [5] = Cytotoxicity against human NUGC3 cells assessed as cell viability at 10 uM after 72 hrs by sulforhodamine B assay relative to control; type: functional; conditions: NUGC-3, 72 h, read-out: Activity
# [6] = target: Nuclear factor NF-kappa-B complex (Homo sapiens) (UniProt Q00653+P19838+Q04206); assay: Inhibition of NF-kappaB (unknown origin) transcriptional activity in LPS-induced mouse RAW264.7 cells at 30 uM after 1 hr by secreted alkaline phosphatase assay relative to control; type: cell-based
# [7] = Cytotoxicity against human HCT15 cells assessed as cell viability at 10 uM after 72 hrs by sulforhodamine B assay relative to control; type: functional; conditions: HCT-15, 72 h, read-out: Activity
# NCI-H23 [8] = assay: Cytotoxicity against human NCI-H23 cells assessed as cell viability at 10 uM after 72 hrs by sulforhodamine B assay relative to control; type: functional; conditions: NCI-H23, 72 h, read-out: Activity
# ACHN [9] = assay: Cytotoxicity against human ACHN cells assessed as growth inhibition after 72 hrs by sulforhodamine B assay; type: functional
# [10] = Cytotoxicity against human PC3 cells assessed as growth inhibition after 72 hrs by sulforhodamine B assay; type: functional; conditions: PC-3, 72 h
# [11] = Cytotoxicity against human NUGC3 cells assessed as growth inhibition after 72 hrs by sulforhodamine B assay; type: functional; conditions: NUGC-3, 72 h
# MDA-MB-231 [12] = assay: Cytotoxicity against human MDA-MB-231 cells assessed as growth inhibition after 72 hrs by sulforhodamine B assay; type: functional; conditions: MDA-MB-231, 72 h
# NCI-H23 [13] = assay: Cytotoxicity against human NCI-H23 cells assessed as growth inhibition after 72 hrs by sulforhodamine B assay; type: functional; conditions: NCI-H23, 72 h
# [14] = Cytotoxicity against human HCT15 cells assessed as growth inhibition after 72 hrs by sulforhodamine B assay; type: functional; conditions: HCT-15, 72 h
# Sequence of Nuclear factor NF-kappa-B complex (Homo sapiens) (P19838 whole entry, looked up): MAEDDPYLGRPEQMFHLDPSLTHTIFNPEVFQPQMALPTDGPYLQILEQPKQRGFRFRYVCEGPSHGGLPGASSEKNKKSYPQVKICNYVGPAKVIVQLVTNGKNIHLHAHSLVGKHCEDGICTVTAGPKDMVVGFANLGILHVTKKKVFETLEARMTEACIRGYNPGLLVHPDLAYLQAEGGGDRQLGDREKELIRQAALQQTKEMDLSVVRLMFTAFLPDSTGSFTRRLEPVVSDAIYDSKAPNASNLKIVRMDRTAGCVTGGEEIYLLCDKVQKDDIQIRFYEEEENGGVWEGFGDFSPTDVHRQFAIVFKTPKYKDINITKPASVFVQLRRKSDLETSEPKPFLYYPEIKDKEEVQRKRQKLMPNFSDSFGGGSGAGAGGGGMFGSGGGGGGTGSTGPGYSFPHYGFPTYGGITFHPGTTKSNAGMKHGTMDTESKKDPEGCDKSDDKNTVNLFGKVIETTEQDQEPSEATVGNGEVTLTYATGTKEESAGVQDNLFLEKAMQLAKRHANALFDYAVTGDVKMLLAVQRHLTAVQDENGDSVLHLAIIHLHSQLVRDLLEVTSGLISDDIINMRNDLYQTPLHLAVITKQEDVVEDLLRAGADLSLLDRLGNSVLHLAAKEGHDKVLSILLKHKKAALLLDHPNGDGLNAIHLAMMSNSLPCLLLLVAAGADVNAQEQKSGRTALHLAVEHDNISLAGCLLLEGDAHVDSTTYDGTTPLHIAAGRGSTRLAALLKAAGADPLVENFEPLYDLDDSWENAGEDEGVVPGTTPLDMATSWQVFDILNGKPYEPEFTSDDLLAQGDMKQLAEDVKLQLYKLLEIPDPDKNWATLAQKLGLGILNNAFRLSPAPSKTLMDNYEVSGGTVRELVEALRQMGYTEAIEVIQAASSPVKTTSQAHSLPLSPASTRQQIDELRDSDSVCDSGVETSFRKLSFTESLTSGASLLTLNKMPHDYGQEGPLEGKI
# Sequence of Nuclear factor NF-kappa-B complex (Homo sapiens) (Q00653 whole entry, looked up): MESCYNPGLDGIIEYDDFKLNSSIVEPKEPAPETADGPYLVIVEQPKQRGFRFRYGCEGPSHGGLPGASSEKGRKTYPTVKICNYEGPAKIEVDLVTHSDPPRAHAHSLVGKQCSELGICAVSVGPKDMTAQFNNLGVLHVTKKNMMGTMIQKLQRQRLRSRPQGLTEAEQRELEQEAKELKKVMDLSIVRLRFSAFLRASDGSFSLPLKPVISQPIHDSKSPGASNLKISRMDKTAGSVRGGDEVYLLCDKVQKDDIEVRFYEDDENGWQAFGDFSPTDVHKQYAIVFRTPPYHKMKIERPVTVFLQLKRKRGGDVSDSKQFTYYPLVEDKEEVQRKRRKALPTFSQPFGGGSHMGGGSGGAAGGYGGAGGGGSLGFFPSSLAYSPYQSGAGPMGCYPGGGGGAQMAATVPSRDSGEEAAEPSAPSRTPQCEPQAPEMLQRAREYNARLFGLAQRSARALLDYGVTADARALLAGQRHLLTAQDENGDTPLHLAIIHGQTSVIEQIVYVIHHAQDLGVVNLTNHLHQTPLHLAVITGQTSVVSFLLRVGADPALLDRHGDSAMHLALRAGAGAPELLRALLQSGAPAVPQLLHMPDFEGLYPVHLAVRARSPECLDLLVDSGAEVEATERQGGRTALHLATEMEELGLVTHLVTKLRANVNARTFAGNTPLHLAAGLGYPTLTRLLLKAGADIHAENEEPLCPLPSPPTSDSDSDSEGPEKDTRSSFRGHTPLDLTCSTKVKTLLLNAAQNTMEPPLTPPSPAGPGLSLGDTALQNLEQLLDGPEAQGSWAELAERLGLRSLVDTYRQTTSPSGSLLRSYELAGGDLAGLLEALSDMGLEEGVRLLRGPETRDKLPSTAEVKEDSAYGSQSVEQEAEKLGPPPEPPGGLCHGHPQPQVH
# Sequence of Nuclear factor NF-kappa-B complex (Homo sapiens) (Q04206 whole entry, looked up): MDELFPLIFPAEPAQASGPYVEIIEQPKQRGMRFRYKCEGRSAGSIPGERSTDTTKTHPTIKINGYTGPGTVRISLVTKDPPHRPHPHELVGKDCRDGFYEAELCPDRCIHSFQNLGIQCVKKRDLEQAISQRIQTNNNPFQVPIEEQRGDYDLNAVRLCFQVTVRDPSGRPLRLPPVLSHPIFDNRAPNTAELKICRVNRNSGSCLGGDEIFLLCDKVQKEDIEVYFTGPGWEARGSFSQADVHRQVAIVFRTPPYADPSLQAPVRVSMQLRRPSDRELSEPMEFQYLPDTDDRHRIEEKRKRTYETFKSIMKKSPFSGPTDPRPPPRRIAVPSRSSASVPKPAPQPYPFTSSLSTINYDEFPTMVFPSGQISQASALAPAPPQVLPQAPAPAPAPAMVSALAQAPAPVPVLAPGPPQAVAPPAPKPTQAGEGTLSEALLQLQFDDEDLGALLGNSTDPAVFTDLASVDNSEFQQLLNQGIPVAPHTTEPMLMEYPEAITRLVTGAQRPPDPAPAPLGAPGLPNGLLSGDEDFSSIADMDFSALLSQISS
# Sequence of Nuclear factor NF-kappa-B complex (P19838 1-433 limits assumed): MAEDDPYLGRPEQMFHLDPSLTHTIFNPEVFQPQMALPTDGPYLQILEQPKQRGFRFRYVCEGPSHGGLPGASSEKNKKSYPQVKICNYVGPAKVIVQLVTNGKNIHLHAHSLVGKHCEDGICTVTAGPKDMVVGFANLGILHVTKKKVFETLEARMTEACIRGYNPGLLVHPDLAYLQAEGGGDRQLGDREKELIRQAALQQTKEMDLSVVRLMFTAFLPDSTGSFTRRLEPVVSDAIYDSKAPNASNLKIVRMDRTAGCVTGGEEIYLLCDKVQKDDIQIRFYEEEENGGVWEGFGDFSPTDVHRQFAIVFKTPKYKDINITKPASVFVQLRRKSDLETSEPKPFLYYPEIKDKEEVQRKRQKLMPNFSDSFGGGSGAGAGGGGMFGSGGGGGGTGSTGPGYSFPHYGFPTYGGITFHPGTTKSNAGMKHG
# Sequence of Nuclear factor NF-kappa-B complex (Q00653 1-454 limits assumed): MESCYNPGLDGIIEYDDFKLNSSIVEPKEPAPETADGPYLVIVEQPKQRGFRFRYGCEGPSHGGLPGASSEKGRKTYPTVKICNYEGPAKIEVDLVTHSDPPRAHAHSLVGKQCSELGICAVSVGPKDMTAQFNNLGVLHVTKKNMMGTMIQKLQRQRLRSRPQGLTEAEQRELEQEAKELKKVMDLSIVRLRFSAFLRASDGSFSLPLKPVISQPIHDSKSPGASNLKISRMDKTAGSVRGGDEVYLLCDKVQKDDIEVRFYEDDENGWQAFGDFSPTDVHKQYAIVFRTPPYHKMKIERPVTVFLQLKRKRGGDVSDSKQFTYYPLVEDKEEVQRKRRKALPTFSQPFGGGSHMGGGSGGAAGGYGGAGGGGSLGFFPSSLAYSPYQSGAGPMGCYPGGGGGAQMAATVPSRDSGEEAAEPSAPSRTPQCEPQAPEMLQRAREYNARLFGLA
# Sequence of Nuclear factor NF-kappa-B complex (Q04206 whole entry): as the sequence (Q04206 whole entry, looked up) above
Compound,inhibition [6],viability at 10 µM [1],viability at 10 µM (ACHN [2]),viability at 10 µM (MDA-MB-231 [3]),pIC50 [4],viability at 10 µM [5],viability at 10 µM [7],viability at 10 µM (NCI-H23 [8]),GI50 (ACHN [9]),GI50 [10],GI50 [11],GI50 (MDA-MB-231 [12]),GI50 (NCI-H23 [13]),GI50 [14]
S=C(S)N1CCCC1 [PYRROLIDINE DITHIOCARBAMATE],,,,,4.46,,,,230 nM,170 nM,140 nM,160 nM,100 nM,130 nM
O=C(Nc1ccc([N+](=O)[O-])cc1)C1Cc2ccccc2O1 (stereo not drawn),34%,10%,93%,85%,,86%,81%,77%,,1860 nM,,,,
COc1cccc2c1C(=O)c1c(O)c3c(c(O)c1C2=O)C[C@@](O)(C(=O)CO)C[C@@H]3O[C@H]1C[C@H](N)[C@H](O)[C@H](C)O1 [DOXORUBICIN],,,,,,,,,200 nM,910 nM,190 nM,560 nM,400 nM,450 nM
O=C(Nc1ccccc1[N+](=O)[O-])c1cc2ccccc2o1,25.5%,92%,91%,102%,,95%,73%,95%,,,,,,
O=C(Nc1ccccc1Cl)c1cc2ccccc2o1,49.5%,91%,76%,76%,,86%,75%,91%,,,,,,
O=C(Nc1ccc(Cl)c(Cl)c1)c1cc2ccccc2o1,40%,113%,95%,80%,,102%,96%,100%,,,,,,
Cc1cccc(NC(=O)C2Cc3ccccc3O2)c1 (stereo not drawn),25%,96%,145%,95%,,108%,99%,98%,,,,,,

# Continued, in another order:
inhibition [6],Compound,viability at 10 µM [1],viability at 10 µM (ACHN [2]),viability at 10 µM (MDA-MB-231 [3]),pIC50 [4],viability at 10 µM [5],viability at 10 µM [7],viability at 10 µM (NCI-H23 [8]),GI50 (ACHN [9]),GI50 [10],GI50 [11],GI50 (MDA-MB-231 [12]),GI50 (NCI-H23 [13]),GI50 [14]
51.5%,O=C(Nc1cc(C(F)(F)F)cc(C(F)(F)F)c1)c1cc2ccccc2o1,110%,95%,98%,4.47,98%,98%,101%,,,,,,
17%,O=C(Nc1cccc(O)c1)C1Cc2ccccc2O1 (stereo not drawn),4%,125%,63%,,110%,97%,60%,,3970 nM,,,,
24%,COc1cc(NC(=O)C2Cc3ccccc3O2)cc(OC)c1 (stereo not drawn),73%,123%,78%,,96%,91%,95%,,,,,,
34%,O=C(Nc1cc(C(F)(F)F)ccc1C(F)(F)F)C1Cc2ccccc2O1 (stereo not drawn),88%,105%,98%,,99%,81%,87%,,,,,,
20%,O=C(Nc1cc(Cl)cc(Cl)c1)c1cc2ccccc2o1,99%,99%,102%,,93%,95%,100%,,,,,,
30.5%,O=C(Nc1cccc(C(F)(F)F)c1)C1Cc2ccccc2O1 (stereo not drawn),69%,134%,102%,,93%,95%,100%,,,,,,
